Assays:
hα2C receptor = biological target: T1, hα2C receptor (Homo sapiens, UniProt P18825); assay: Radioligand binding experiment for α2C-adrenergic receptor ([3H]-raulwolscine); conditions: membranes of CHO cells transfected with human α2C receptor; [3H]raulwolscine 1 nM
T1 construct: expressed in transfected cells
T1 sequence (P18825 1-462): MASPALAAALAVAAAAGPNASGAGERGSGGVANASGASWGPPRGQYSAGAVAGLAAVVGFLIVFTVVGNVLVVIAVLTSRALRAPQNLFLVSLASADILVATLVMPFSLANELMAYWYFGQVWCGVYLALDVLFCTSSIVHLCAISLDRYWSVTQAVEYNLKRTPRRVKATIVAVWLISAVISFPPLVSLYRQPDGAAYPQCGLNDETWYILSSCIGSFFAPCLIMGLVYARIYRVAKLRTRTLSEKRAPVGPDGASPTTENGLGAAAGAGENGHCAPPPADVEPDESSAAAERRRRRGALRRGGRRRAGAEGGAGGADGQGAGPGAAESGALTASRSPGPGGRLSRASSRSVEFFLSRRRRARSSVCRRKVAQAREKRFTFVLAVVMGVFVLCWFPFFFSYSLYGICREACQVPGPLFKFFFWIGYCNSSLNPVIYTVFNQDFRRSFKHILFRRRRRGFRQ
Method: (§1) The interaction of the compounds of Formula (I) with hα2-receptors and h5-HT-transporters was assessed in in vitro radioligand binding experiments. In general, a low concentration of a radioligand with a high binding affinity for a particular receptor or transporter is incubated with a sample of a tissue preparation enriched in a particular receptor or transporter or with a preparation of cells expressing cloned human receptors in a buffered medium. During the incubation, the radioligand binds to the receptor or transporter. When equilibrium of binding is reached, the receptor bound radioactivity is separated from the non-bound radioactivity, and the receptor- or transporter-bound activity is counted. The interaction of the test compounds with the receptor is assessed in competition binding experiments. Various concentrations of the test compound are added to the incubation mixture containing the receptor- or transporter preparation and the radioligand. The test compound in proportion to its binding affinity and its concentration inhibits binding of the radioligand. The radioligand used for hα2A, hα2B and hα2C receptor binding was [^3H]-raulwolscine and for the h5-HT transporter was [^3H]paroxetine.
(§2) CHO cells, stabile transfected with human adrenergic-α2A-, -α2B or α2C receptor cDNA, were cultured in Dulbecco's Modified Eagle's Medium (DMEM)/Nutrient mixture Ham's F12 (ratio 1:1) (Gibco, Gent-Belgium) supplemented with 10% heat inactivated fetal calf serum (Life Technologies, Merelbeke-Belgium) and antibiotics (100 IU/ml penicillin G, 100 μg/ml streptomycin sulphate, 110 μg/ml pyruvic acid and 100 μg/ml L-glutamine). One day before collection, cells were induced with 5 mM sodiumbutyrate. Upon 80-90% of confluence, cells were scraped in phosphate buffered saline without Ca^2+ and Mg^2+ and collected by centrifugation at 1500×g for 10 min. The cells were homogenised in Tris-HCl 50 mM using an Ultraturrax homogenizer and centrifuged for 10 min at 23,500×g. The pellet was washed once by resuspension and rehomogenization and the final pellet was resuspended in Tris-HCl, divided in 1 ml aliquots and stored at −70° C.
(§3) Membranes were thawed and re-homogenized in incubation buffer (glycylglycine 25 mM, pH 8.0). In a total volume of 500 μl, 2-10 μg protein was incubated with [^3H]raulwolscine (NET-722) (New England Nuclear, USA) (1 nM final concentration) with or without competitor for 60 min at 25° C. followed by rapid filtration over GF/B filter using a Filtermate 196 harvester (Packard, Meriden, Conn.). Filters were rinsed extensively with ice-cold rinsing buffer (Tris-HCl 50 mM pH 7.4). Filter-bound radioactivity was determined by scintillation counting in a Topcount (Packard, Meriden, Conn.) and results were expressed as counts per minute (cpm). Non-specific binding was determined in the presence of 1 μM oxymetazoline for hα2A- and hα2B-receptors and 1 μM spiroxatrine for hα2C receptors.
(§4) Data from assays in the presence of compound were calculated as a percentage of total binding measured in the absence of test compound. Inhibition curves, plotting percent of total binding versus the log value of the concentration of the test compound, were automatically generated, and sigmoidal inhibition curves were fitted using non-linear regression. The pIC50 values of test compounds were derived from individual curves. All compounds according to Formula (I) produced an inhibition at least at the hα2A site (but often also at the hα2B and hα2C sites) and simultaneously at the 5-HT transporter site of more than 50% (PIC50) at a test concentration ranging between 10^−6 M and 10^−9 M in a concentration-dependent manner.

hα2A receptor = biological target: T2, hα2A receptor (Homo sapiens, UniProt P08913); assay: Radioligand binding experiment for α2A-adrenergic receptor ([3H]-raulwolscine); conditions: membranes of CHO cells transfected with human α2A receptor; [3H]raulwolscine 1 nM
T2 construct: expressed in transfected cells
T2 sequence (P08913 1-465): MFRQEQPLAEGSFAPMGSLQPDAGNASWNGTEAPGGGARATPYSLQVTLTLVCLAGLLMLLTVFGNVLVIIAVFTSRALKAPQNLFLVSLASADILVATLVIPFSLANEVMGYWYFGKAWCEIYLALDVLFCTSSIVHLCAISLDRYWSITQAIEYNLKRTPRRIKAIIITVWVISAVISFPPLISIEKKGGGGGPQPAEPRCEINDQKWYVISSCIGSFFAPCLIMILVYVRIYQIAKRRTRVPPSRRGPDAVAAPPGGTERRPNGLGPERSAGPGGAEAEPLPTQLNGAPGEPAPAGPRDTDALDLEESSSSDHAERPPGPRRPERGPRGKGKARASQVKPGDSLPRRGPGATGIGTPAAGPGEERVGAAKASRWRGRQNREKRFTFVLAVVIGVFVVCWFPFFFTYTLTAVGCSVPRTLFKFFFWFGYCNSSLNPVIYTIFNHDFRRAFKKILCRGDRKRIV
Method: as §1, §2, §3, §4

h5-HT transporter = biological target: T3, h5-HT transporter (Homo sapiens, UniProt P31645); assay: Radioligand binding experiment for 5-HT transporter ([3H]paroxetine); conditions: human platelet membranes; [3H]paroxetine 0.5 nM; read-out: 5-HTT (converted)
T3 construct: Human platelet membranes (Oceanix Biosciences Corporation, Hanover, Md., USA) were thawed; tissue Oceanix Biosciences Corporation; host or cells: human platelet membranes
Method: as §1
Human platelet membranes (Oceanix Biosciences Corporation, Hanover, Md., USA) were thawed, diluted in buffer (Tris-HCl 50 mM, 120 mM NaCl and 5 mM KCl) and quickly (max 3 s) homogenised with an Ultraturrax homogenizer. In a total volume of 250 μL, 50-100 μg protein was incubated with [^3H]paroxetine (NET-869) (New England Nuclear, USA) (0.5 nM final concentration) with or without competitor for 60 min at 25° C. Incubation was stopped by rapid filtration of the incubation mixture over GF/B filters, pre-wetted with 0.1% polyethyleneamine, using a Filtermate 196 harvester (Packard, Meriden, Conn.). Filters were rinsed extensively with ice-cold buffer and radioactivity on the filters was counted in a Topcount liquid scintillation counter (Packard, Meriden, Conn.). Data were expressed as cpm. Imipramine (at 1 μM final concentration) was used to determine the non-specific binding.
as §4

hα2B receptor = biological target: T4, hα2B receptor (Homo sapiens, UniProt P18089); assay: Radioligand binding experiment for α2B-adrenergic receptor ([3H]-raulwolscine); conditions: membranes of CHO cells transfected with human α2B receptor; [3H]raulwolscine 1 nM
T4 construct: expressed in transfected cells
T4 sequence (P18089 1-450): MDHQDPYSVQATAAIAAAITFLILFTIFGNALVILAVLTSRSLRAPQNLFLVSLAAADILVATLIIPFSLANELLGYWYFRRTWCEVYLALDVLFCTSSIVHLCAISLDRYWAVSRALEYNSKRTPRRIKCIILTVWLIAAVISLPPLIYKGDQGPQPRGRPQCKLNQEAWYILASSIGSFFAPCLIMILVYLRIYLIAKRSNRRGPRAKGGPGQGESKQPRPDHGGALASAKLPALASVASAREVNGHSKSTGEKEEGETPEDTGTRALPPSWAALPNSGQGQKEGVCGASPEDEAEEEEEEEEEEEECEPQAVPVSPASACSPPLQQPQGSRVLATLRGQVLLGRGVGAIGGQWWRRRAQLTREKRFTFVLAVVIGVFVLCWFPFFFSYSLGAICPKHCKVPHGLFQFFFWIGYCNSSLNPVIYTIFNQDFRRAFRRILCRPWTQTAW
Method: as §1, §2, §3, §4

T3 sequence (P31645 whole entry): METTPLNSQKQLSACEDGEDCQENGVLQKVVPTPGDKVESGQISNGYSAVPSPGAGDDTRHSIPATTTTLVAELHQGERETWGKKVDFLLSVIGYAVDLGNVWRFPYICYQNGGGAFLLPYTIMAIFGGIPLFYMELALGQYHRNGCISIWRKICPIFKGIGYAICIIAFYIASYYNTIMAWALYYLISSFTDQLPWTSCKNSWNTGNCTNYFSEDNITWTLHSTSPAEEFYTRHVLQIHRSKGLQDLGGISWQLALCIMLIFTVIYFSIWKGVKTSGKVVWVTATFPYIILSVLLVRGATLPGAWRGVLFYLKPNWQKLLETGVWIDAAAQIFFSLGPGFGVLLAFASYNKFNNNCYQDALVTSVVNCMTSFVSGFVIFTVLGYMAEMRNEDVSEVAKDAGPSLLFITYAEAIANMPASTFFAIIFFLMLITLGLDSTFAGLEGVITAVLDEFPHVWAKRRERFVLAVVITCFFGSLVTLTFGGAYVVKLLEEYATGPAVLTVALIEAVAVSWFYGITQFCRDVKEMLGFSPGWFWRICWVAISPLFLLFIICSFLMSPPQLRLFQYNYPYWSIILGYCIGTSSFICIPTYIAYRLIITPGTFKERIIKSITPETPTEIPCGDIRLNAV

Structure (SMILES)	IC50 (hα2C receptor) [nM]	IC50 (hα2A receptor) [nM]	IC50 (h5-HT transporter) [nM]	IC50 (hα2B receptor) [nM]
COc1cccc2c1OC[C@@H]1C2=NO[C@H]1CN1CCN(C/C(C)=C/c2ccccc2)CC1 (relative stereo) [Compound 6, 6-methoxy-3-[4-(2-methyl-3-phenyl-allyl)-piperazin-1-ylmethyl]-3a,4-dihydro-3H-chromeno[4,3-c]isoxazole]	1.58	7.94	50.1	2
C/C(=C\c1ccccc1)CN1CCN(C[C@@H]2ON=C3c4cccc(O)c4OC[C@H]32)CC1 (relative stereo) [Compound 7, 3-[4-(2-methyl-3-phenyl-allyl)-piperazin-1-ylmethyl]-3a,4-dihydro-3H-chromeno[4,3-c]isoxazol-6-ol]	2	7.94	50.1	1.26
COc1cc2c(c(Nc3ccncc3)c1OC)OC[C@@H]1C2=NO[C@H]1CN1CCN(C/C(C)=C/c2ccc(F)cc2)CC1 (relative stereo) [Compound 21, (3-{4-[3-(4-fluoro-phenyl)-2-methyl-allyl]-piperazin-1-ylmethyl}-7,8-dimethoxy-3a,4-dihydro-3H-chromeno [4,3-c]isoxazol-6-yl)-pyridin-4-yl-amine]	6.31	63.1	398	15.8
COc1cc2c(c(N3CCN(C)CC3)c1OC)OC[C@@H]1C2=NO[C@H]1CN1CCN(C/C(C)=C/c2ccccc2)CC1 (single isomer, unassigned) [Compound 2, 7,8-dimethoxy-3-[4-(2-methyl-3-phenyl-allyl)-piperazin-1-ylmethyl]-6-(4-methyl-piperazin-1-yl)-3a,4-dihydro-3H-chromeno [4,3-c]isoxazole]	0.794	6.31	39.8	1.58
COc1cc2c(c(C)c1OC)OC[C@@H]1C2=NO[C@H]1CN1CCN(C/C(C)=C/c2ccccc2)CC1 (single isomer, unassigned) [Compound 3, 7,8-dimethoxy-6-methyl-3-[4-(2-methyl-3-phenyl-allyl)-piperazin-1-ylmethyl]-3a,4-dihydro-3H-chromeno[4,3-c]isoxazole]	0.398	1.58	31.6	
CCOC(=O)c1c(OC)c(OC)cc2c1OC[C@@H]1C2=NO[C@H]1CN1CCN(C/C(C)=C/c2ccccc2)CC1 (single isomer, unassigned) [Compound 4, 7,8-dimethoxy-3-[4-(2-methyl-3-phenyl-allyl)-piperazin-1-ylmethyl]-3a,4-dihydro-3H-chromeno[4,3-c]isoxazole-6-carboxylic acid ethyl ester]	1.26	6.31	63.1	3.98
COC(=O)c1c(OC)c(OC)cc2c1OCC1C2=NOC1CN1CCN(C/C(C)=C/c2ccccc2)CC1 (single isomer, unassigned) [Compound 5]	1.26	2	158	5.01
COCC(=O)OCCOc1cccc2c1OCC1C2=NOC1CN1CCN(CC(C)=Cc2ccccc2)CC1 (single isomer, unassigned) [Compound 24]	39.8	100	31.6	25.1
COCC(=O)OCCOc1cccc2c1OCC1C2=NOC1CN1CCN(CC(C)=Cc2ccccc2)CC1 (single isomer, unassigned) [Compound 25]	2	39.8	316	1.58
COc1cc2c(c(Br)c1OC)OCC1C2=NOC1CN1CCN(C/C(C)=C/c2ccccc2)CC1 (stereo not shown) [Compound 1, 6-Bromo-7,8-dimethoxy-3-[4-(2-methyl-3-phenyl-allyl)-piperazin-1-ylmethyl]-3a,4-dihydro-3H-chromeno[4,3-c]isoxazole]	1	2	12.6	
COc1cccc2c1C1=NOC(CN3CCN(CC(C)=Cc4ccccc4)CC3)C1CO2 (stereo not shown) [Compound 8]	2.51	2	251	1
CC(=Cc1ccccc1)CN1CCN(CC2ON=C3c4c(O)cccc4OCC32)CC1 (stereo not shown) [Compound 9]	1.26	25.1	63.1	2
CCNC(=O)OCCOc1cccc2c1OCC1C2=NOC1CN1CCN(CC(C)=Cc2ccccc2)CC1 (stereo not shown) [Compound 10]	6.31	79.4	39.8	5.01
CC(=Cc1ccccc1)CN1CCN(CC2ON=C3c4cccc(OCCO)c4OCC32)CC1 (stereo not shown) [Compound 11]	3.16	3.16	50.1	2.51
COCC(=O)OCCOc1cccc2c1OCC1C2=NOC1CN1CCN(CC(C)=Cc2ccccc2)CC1 (stereo not shown) [Compound 12]	3.98	126	126	6.31

Reference: US7462717B2, “C6-and C9-substituted chromeno[4,3-c]isoxazoline derivatives and their use as anti-depressants” (Janssen Pharmaceutica N.V., priority 2002, dated 2008)
